The results in this text go back to US20230141403A1 (Hoffmann-La Roche Inc., priority 2020, published 2023).

Structures are written as SMILES. Structures can show the parent of a compound that is named as a salt.

One assay has as its system Acinetobacter baumannii ATCC17978. The assay can be described thus: Antimicrobial susceptibility testing: 90% growth inhibitory concentration (IC90) determination. In kind it is cell-based. Conditions: ATCC17978, 90% growth inhibitory concentration, Iso-Sensitest broth, optical density at 600 nm over 16h, 35±2° C., read-out: AB ATCC 17978 IC90. As for the experimental part: (§1) Antimicrobial Susceptibility Testing:
(§2) 90% Growth Inhibitory Concentration (IC90) Determination
(§3) The in vitro antimicrobial activity of the compounds was determined according to the following procedure:
(§4) The assay used a 10-points Iso-Sensitest broth medium to measure quantitatively the in vitro activity of the compounds against Acinetobacter baumannii ATCC17961 or ATCC17978.
(§5) Stock compounds in DMSO were serially twofold diluted (e.g. range from 50 to 0.097 μM final concentration) in 384 wells microtiter plates and inoculated with 49 μl the bacterial suspension in Iso-Sensitest medium to have a final cell concentration of ˜5×10^(5) CFU/ml in a final volume/well of 50 ul/well. Microtiter plates were incubated at 35±2° C.
(§6) Bacterial cell growth was determined with the measurement of optical density at λ=600 nm each 20 minutes over a time course of 16h. Growth inhibition was calculated during the logarithmic growth of the bacterial cells with determination of the concentration inhibiting 50% (IC50) and 90% (IC90) of the growth.
Table 1 provides the 90% growth inhibitory concentrations (IC90) in micromoles per liter of the compounds of present invention obtained against the strain Acinetobacter baumannii ATCC17978.
For `CCN(CC)C(=O)CNS(=O)(=O)c1ccc(Nc2nccn3c(-c4ccc(OC)cc4)cnc23)cc1` [Example 80, N,N-diethyl-2-(4-((3-(4-methoxyphenyl)imidazo[1,2-a]pyrazin-8-yl)amino)phenylsulfonamido) acetamide], the IC90 (in general, the concentration needed for an effect of 90%) came to 760 nM.

`O=C1CCCN1c1ccc(Nc2nccn3c(-c4ccc(OC(F)F)cc4)cnc23)cc1` [Example 35]: the 90% effect concentration (IC90) amounted to 150 nM.

Consider `CC1CCC(=O)N1c1ccc(Nc2nccn3c(-c4ccc(OC(F)F)cc4)cnc23)cc1` (stereo not drawn) [Example 95, 1-(4-((3-(4-(difluoromethoxy)phenyl)imidazo[1,2-a]pyrazin-8-yl)amino)phenyl)-5-methylpyrrolidin-2-one], for which the IC90 came out at 380 nM.

For the molecule `Cc1cc(Nc2nccn3c(-c4ccc(OC(F)F)cc4)cnc23)ccc1NC(=O)CN1CCC(N)C1` (stereo not drawn) [Example 59, 2-(3-aminopyrrolidin-1-yl)-N-(4-((3-(4-(difluoromethoxy)phenyl)imidazo[1,2-a]pyrazin-8-yl)amino)-2-methylphenyl)acetamide], the IC90 stood at 250 nM.

For the molecule `CC(=O)Nc1ccc(Nc2nccn3c(-c4ccc(F)c(F)c4F)cnc23)cc1` [Example 82, N-(4-((3-(2,3,4-trifluorophenyl)imidazo[1,2-a]pyrazin-8-yl)amino)phenyl)acetamide], the IC90 turned out to be 890 nM.

With `CNC(=O)c1cc(Nc2nccn3c(-c4ccc(OC)cc4)cnc23)ccc1Cl` [Example 76, 2-chloro-5-((3-(4-methoxyphenyl)imidazo[1,2-a]pyrazin-8-yl)amino)-N-methylbenzamide], the IC90 is 730 nM.

`CNS(=O)(=O)c1ccc(Nc2nccn3c(-c4ccc(OC)c(Cl)c4)cnc23)cc1` [Example 91, 4-((3-(3-chloro-4-methoxyphenyl)imidazo[1,2-a]pyrazin-8-yl)amino)-N-methylbenzenesulfonamide]: the IC90 stood at 810 nM.

In the case of `CC(=O)Nc1ccc(Nc2nccn3c(-c4ccc(OC(F)F)cc4)cnc23)cc1C` [Example 40], the IC90 was determined as 130 nM.

In a further assay the test system is Acinetobacter baumannii ATCC17961. The description is as above. In kind it is cell-based. The following applies: 90% growth inhibitory concentration; Iso-Sensitest broth, optical density at 600 nm over 16h, 35±2° C.; read-out: AB ATCC 17961 IC90. As for the experimental part:
as §1, §2, §3, §4, §5, §6
Table 2 provides the 90% growth inhibitory concentrations (IC90) in micromoles per liter of the compounds of present invention obtained against the strain Acinetobacter baumannii ATCC17961.
As for `CN=S(C)(=O)c1ccc(Nc2nccn3c(-c4ccc(OC)c(F)c4F)cnc23)cc1C` (single isomer, unassigned; (+)) [Example 21, (+)-(4-((3-(2,3-difluoro-4-methoxyphenyl)imidazo[1,2-a]pyrazin-8-yl)amino)-2-methylphenyl)(methyl)(methylimino)-l6-sulfanone], the IC90 came out at 0.26 µM.

Staying with this assay, now noted: Acinetobacter baumannii, ATCC17961, 16 h, 90% growth inhibitory concentration; Iso-Sensitest broth, optical density at 600 nm over 16h, 35±2° C.; read-out: AB ATCC 17961 IC90.
As to `COc1ccc(-c2cnc3c(Nc4ccc(NC(C)=O)c(Cl)c4)nccn23)cc1` [Example 39, N-(2-chloro-4-((3-(4-methoxyphenyl)imidazo[1,2-a]pyrazin-8-yl)amino)phenyl)acetamide], the IC90 was 0.1 µM.

Turning to `COc1ccc(-c2cnc3c(Nc4ccc5c(c4)CCC5NCCN)nccn23)c(F)c1F` (stereo not drawn) [Example 6, N1-(2-aminoethyl)-N5-[3-(2,3-difluoro-4-methoxy-phenyl)imidazo[1,2-a]pyrazin-8-yl]indane-1,5-diamine formic acid], the IC90 worked out at 0.3 µM.

In the case of `CCc1cc(Nc2nccn3c(-c4ccc(OC)c(F)c4F)cnc23)ccc1N1CCC(CN)CC1` [Example 114, N-(4-(4-(aminomethyl)piperidin-1-yl)-3-ethylphenyl)-3-(2,3-difluoro-4-methoxyphenyl) imidazo [1,2-a]pyrazin-8-amine hydrochloride], the concentration for an effect of 90% (IC90) was 0.81 µM.

For the molecule `COc1ccc(-c2cnc3c(Nc4ccc(N5CCCC5=O)cc4)nccn23)cc1F` [Example 48, 1-(4-((3-(3-fluoro-4-methoxyphenyl)imidazo[1,2-a]pyrazin-8-yl)amino)phenyl)pyrrolidin-2-one], the IC90 was found to be 0.076 µM.

Consider `COc1ccc(-c2cnc3c(Nc4ccc([S@@](C)(=O)=NCCCNC(=O)[C@@H]5C[C@@H](O)CN5)c(C)c4)nccn23)c(F)c1F` [Example 30, (2S,4R)-N-(3-(((+)-(4-((3-(2,3-difluoro-4-methoxyphenyl)imidazo[1,2-a]pyrazin-8-yl)amino)-2-methylphenyl) (methyl)(oxo)-16-sulfaneylidene)amino)propyl)-4-hydroxypyrrolidine-2-carboxamide dihydrochloride], for which the IC90 worked out at 0.13 µM.

On to `COc1ccc(-c2cnc3c(Nc4ccc(S(=O)(=O)NCCOCCN)c(Cl)c4)nccn23)c(F)c1F` [Example 101, N-(2-(2-aminoethoxy)ethyl)-2-chloro-4-((3-(2,3-difluoro-4-methoxyphenyl)imidazo[1,2-a]pyrazin-8-yl)amino) benzenesulfonamide hydrochloride], for which the IC90 amounted to 0.078 µM.

Turning to `CN=S(C)(=O)c1ccc(Nc2nccn3c(-c4ccc(OC)c(F)c4F)cnc23)cc1F` (stereo not drawn) [Example 26, (4-((3-(2,3-difluoro-4-methoxyphenyl)imidazol[1,2-a]pyrazin-4-yl)amino)-2-fluorophenyl)(methyl)(methylimino)-l6-sulfanone], the IC90 was determined as 0.14 µM.

Take `CCc1cc(Nc2nccn3c(-c4ccc(OC)c(F)c4F)cnc23)ccc1S(=O)(=O)N1CCN(C(=O)[C@@H]2C[C@@H](O)CN2)CC1` [Example 106, (4-((4-((3-(2,3-difluoro-4-methoxyphenyl)imidazo [1,2-a]pyrazin-8-yl)amino)-2-ethylphenyl)sulfonyl)piperazin-1-yl)((2S,4R)-4-hydroxypyrrolidin-2-yl)methanone hydrochloride]: the IC90 amounted to 0.25 µM.

Turning to `CCc1cc(Nc2nccn3c(-c4ccc(OC)c(F)c4F)cnc23)ccc1S(=O)(=O)N1CCN(C(=O)C[N+](C)(C)C)CC1` [Example 110, 2-(4-((4-((3-(2,3-difluoro-4-methoxyphenyl)imidazo[1,2-a]pyrazin-8-yl)amino)-2-ethylphenyl)sulfonyl)piperazin-1-yl)-N,N,N-trimethyl-2-oxoethan-1-aminium iodide], the IC90 was 0.33 µM.

For `CN=S(=O)(c1ccc(Nc2nccn3c(-c4ccc(OC)c(F)c4F)cnc23)cc1)C1CCN(C(=O)[C@@H]2C[C@@H](O)CN2)CC1` (stereo partly drawn) [Example 74, (4-(4-((3-(2,3-difluoro-4-methoxyphenyl)imidazo[1,2-a]pyrazin-8-yl)amino)-N-methylphenylsulfonimidoyl)piperidin-1-yl)((2S,4R)-4-hydroxypyrrolidin-2-yl)methanone], the IC90 worked out at 0.15 µM.

With `CCc1cc(Nc2nccn3c(-c4ccc(OC)c(F)c4F)cnc23)ccc1S(=O)(=O)N1CCN(C(=O)C2(O)CCNCC2)CC1` [Example 109, (4-((4-((3-(2,3-difluoro-4-methoxyphenyl)imidazo [1,2-alpyrazin-8-yl)amino)-2-ethylphenyl)sulfonyl)piperazin-1-yl)(4-hydroxypiperidin-4-yl)methanonbydrochloride], the IC90 amounted to 0.64 µM.

For `CCc1cc(Nc2nccn3c(-c4ccc(OC)c(F)c4F)cnc23)ccc1S(=O)(=O)N1CCN(C(=O)CN(C)C)CC1` [Example 104, 1-(4-((4-((3-(2,3-difluoro-4-methoxyphenyl)imidazo[1,2-a]pyrazin-8-yl)amino)-2-ethylphenyl)sulfonyl)piperazin-1-yl)-2-(dimethylamino)ethan-1-one], the IC90 was determined as 0.34 µM.

As to `COc1ccc(-c2cnc3c(Nc4ccc5c(c4)CCC5=O)nccn23)c(F)c1F` [Example 125, 5-[[3-(2,3-difluoro-4-methoxy-phenyl)imidazo[1,2-a]pyrazin-8-yl]amino]indan-1-one], the concentration for an effect of 90% (IC90) is 0.36 µM.

Take `NCCCCCC1CC(=O)N(c2ccc(Nc3nccn4c(-c5ccc(OC(F)F)cc5)cnc34)cc2)C1` (stereo not drawn) [Example 62, 4-(5-aminopentyl)-1-(4-((3-(4-(difluoromethoxy)phenyl)imidazo[1,2-a]pyrazin-s-yl)amino)phenyl)pyrrolidin-2-one]: the IC90 stood at 0.094 µM.

Take `O=C1CCCN1c1ccc(Nc2nccn3c(-c4ccc(OC(F)F)cc4)cnc23)cc1Cl` [Example 94, 1-(2-chloro-4-((3-(4-(difluoromethoxy)phenyl)imidazo[1,2-a]pyrazin-8-yl)amino)phenyl)pyrrolidin-2-one]: the IC90 is 0.12 µM.

Turning to `NCCCCC1CC(=O)N(c2ccc(Nc3nccn4c(-c5ccc(OC(F)F)cc5)cnc34)cc2)C1` (stereo not drawn) [Example 63, 4-(4-aminobutyl)-1-(4-((3-(4-(difluoromethoxy)phenyl)imidazo[1,2-a]pyrazin-8-yl)amino)phenyl)pyrrolidin-2-one], the IC90 stood at 0.036 µM.

Regarding `CCc1cc(Nc2nccn3c(-c4ccc(OC)c(F)c4F)cnc23)ccc1C[N+](C)(C)C` [Example 123, [4-[[3-(2,3-difluoro-4-methoxy-phenyl)imidazo[1,2-a]pyrazin-8-yl]amino]-2-ethyl-phenyl]methyl-trimethyl-ammonium], the IC90 came out at 0.58 µM.

The same assay, now with this note: Acinetobacter baumannii, ATCC17961, 16 h, read-out: AB ATCC 17961 IC90 (uM).
Take `COc1ccc(-c2cnc3c(Nc4ccc(S(=O)(=O)N5CCN(CCCN(C)C)CC5)c(Cl)c4)nccn23)c(F)c1F` [Example 96, N-(3-chloro-4-((4-(3-(dimethylamino)propyl)piperazin-1-yl)sulfonyl)phenyl)-3-(2,3-difluoro-4-methoxyphenyl)imidazo[1,2-a]pyrazin-8-amine]: the IC90 is 0.2 µM.
